The source of these data is publication PMC8694318, “Discovery of pyrano[2,3-d]pyrimidine-2,4-dione derivatives as novel PARP-1 inhibitors: design, synthesis and antitumor activity” (RSC Advances, 2021).

Where two headings read alike, the source gives them in different places.

In experiment [1] the target is T1, PARP-1 (Homo sapiens, UniProt P09874).
T1 construct: purchased BPS Bioscience 80580
Briefly: In vitro PARP-1 inhibitory assay (colorimetric 96-well kit, BPS Bioscience). It is filed as biochemical. As for the experimental part:
Briefly, the histone mixture was diluted 1 : 5 with 1× PBS, 50 μl of histone solution was added to each well and incubated at 4 °C overnight. The plate was washed three times using 200 μl PBST buffer (1× PBS containing 0.05% Tween-20) per well. Liquid was removed from the wells by tapping the strip wells on clean paper towels. To each well, 200 μl of blocking buffer was added, followed by 60–90 min incubation at room temperature. Then 25 μl of PARP master mixture (consisting of 2.5 μl 10× PARP buffer + 2.5 μl 10× PARP assay mixture + 5 μl activated DNA + 15 μl distilled water) was added to each well. Olaparib was used as a positive control. 5 μl of inhibitor solution of each well labeled as “test inhibitor” was added. For the “positive control” and “blank”, 5 μl of the same solution without inhibitor was added. 1× PARP buffer was prepared by adding 1 part of 10× PARP buffer to 9 parts H2O (v/v), 20 μl of 1× PARP buffer was added to the wells designated as “blank”. The amount of PARP-1 required for the assay was then calculated. The reaction was initiated by adding 20 μl of diluted PARP1 enzyme to the wells designated “positive control” and “test inhibitor control”. The strip wells were incubated at room temperature for 1 hour. The strip wells were then washed three times with 200 μl PBST buffer. Then, 50 μl of 50 times diluted Streptavidin-HRP with blocking buffer was added to each well, and the strips were further incubated at room temperature for 30 min. After washing the wells three times with 200 μl PBST buffer, HRP colorimetric substrate was added to each well and the plate was incubated at the room temperature until a blue color is developed in the positive control well. Then reaction was quenched with […] per well of 2 M sulfuric acid, and absorbance at 450 nm was determined. Carrier solvents were assayed as negative controls. All assays were performed in triplicate. To determine the IC50 value for each inhibitor, the average absorbance of each inhibitor concentration was plotted against the log of the concentration of each respective inhibitor and the IC50 value for each plot was obtained using computer-assisted non-linear regression analyses. Data presented are the results of at least two independent experiments done in triplicate. The results of these studies are presented as mean IC50 (nM).[24]

In experiment [2] the test system is MCF-7 cells. The experiment is described as follows: Cell proliferation inhibition (MTT) assay, MCF-7. It counts as cell-based. The following applies: Homo sapiens, MCF7, 96 h incubation. As for the experimental part: (§1) We used the MTT [3-(4,5-dimethylthiazol-2-yl)-2,5-diphenyltetrazoliumbromide] (Biomatik, Wilmington, DE) assay to measure cell growth inhibition, which is based on the conversion of MTT to formazan crystals by mitochondrial dehydrogenases.[25] Only in live cells, mitochondrial enzymes can transform MTT into insoluble formazan. After incubated with serially diluted inhibitors for 96 h, cell cultures were incubated with MTT solution (5 mg ml^−1) for 4 h at 37 °C. Then discard the medium and DMSO was added to solubilize the reaction product formazan by shaking for 10 min. Absorbance at 492 nm was measured with a microplate reader (Thermo, MK3). Cell viability was expressed as an IC50 value.

For experiment [3], the system named is HCT116 cells. The experiment is described as follows: Cell proliferation inhibition (MTT) assay, HCT116. It counts as cell-based. The note with it: Homo sapiens, HCT-116, 96 h incubation. The protocol:
as §1

The mark [4] stands for this setting: colorimetric assay, mean of at least two independent experiments in triplicate, read-out: IC50 against PARP-1 (converted).

T1 sequence (P09874 whole entry): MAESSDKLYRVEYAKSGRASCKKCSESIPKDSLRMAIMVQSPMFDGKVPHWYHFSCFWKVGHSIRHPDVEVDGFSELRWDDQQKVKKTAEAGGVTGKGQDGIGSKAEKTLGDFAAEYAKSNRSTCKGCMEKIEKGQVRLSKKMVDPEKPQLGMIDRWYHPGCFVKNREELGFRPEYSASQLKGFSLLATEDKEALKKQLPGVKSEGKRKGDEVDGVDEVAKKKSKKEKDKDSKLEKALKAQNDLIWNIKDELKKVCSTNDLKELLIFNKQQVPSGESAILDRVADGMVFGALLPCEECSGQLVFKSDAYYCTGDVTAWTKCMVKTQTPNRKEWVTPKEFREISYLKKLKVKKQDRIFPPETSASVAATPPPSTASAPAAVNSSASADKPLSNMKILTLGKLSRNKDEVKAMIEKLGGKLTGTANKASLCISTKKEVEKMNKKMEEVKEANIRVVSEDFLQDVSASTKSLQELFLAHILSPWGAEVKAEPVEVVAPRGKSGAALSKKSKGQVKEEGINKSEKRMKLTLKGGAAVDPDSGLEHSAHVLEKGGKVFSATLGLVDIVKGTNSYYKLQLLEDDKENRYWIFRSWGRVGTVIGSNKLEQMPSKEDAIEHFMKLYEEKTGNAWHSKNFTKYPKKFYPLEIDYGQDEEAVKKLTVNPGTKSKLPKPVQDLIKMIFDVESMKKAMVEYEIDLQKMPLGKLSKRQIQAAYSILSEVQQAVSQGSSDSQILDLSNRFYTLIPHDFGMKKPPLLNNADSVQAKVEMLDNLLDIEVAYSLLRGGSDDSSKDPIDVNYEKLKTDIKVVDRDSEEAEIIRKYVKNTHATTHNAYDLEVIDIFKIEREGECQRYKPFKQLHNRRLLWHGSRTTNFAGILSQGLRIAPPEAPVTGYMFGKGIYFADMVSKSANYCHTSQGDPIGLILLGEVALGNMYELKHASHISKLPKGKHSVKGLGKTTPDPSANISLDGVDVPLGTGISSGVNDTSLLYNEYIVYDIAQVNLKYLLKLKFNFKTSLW

Broadly, the IC50 is the concentration at which inhibition is half-maximal. In the case of `CCO/C=N/C1=C(C#N)C(c2cccs2)c2c([nH]c(=O)[nH]c2=O)O1` (centres unmarked) [Compound S9, (E)-ethyl N-(6-cyano-2,4-dioxo-5-(thiophen-2-yl)-2,3,4,5-tetrahydro-1H-pyrano[2,3-d]pyrimidin-7-yl)formimidate], the IC50 is 48.5 ± 3.25 nM in experiment [1] (setting [4]), 8770 ± 150 nM in experiment [2] and 2900 ± 40 nM in experiment [3].

Regarding `Nc1nc(S)nc2c1Oc1[nH]c(=O)[nH]c(=O)c1C2c1cccs1` (centres unmarked) [Compound S2, 4-amino-2-mercapto-10-(thiophen-2-yl)-6,10-dihydro-7H-pyrano[2,3-d:5,6-d']dipyrimidine-7,9(8H)-dione], the IC50 in experiment [1] (setting [4]) was 4.06 ± 0.18 nM; in experiment [2] it was 2650 ± 50 nM; in experiment [3], 9310 ± 340 nM.

In the case of `O=c1[nH]c2c(c(=O)[nH]1)C(c1cccs1)c1[nH]c(=S)n(-c3ccccc3)c(=O)c1O2` (centres unmarked) [Compound S7, 3-phenyl-10-(thiophen-2-yl)-2-thioxo-2,3,6,10-tetrahydro-1H-pyrano[2,3-d:5,6-d']dipyrimidine-4,7,9(8H)-trione], the results for the IC50 in experiment [1] (setting [4]), in experiment [2] and in experiment [3] were 3.61 ± 0.15 nM, 1280 ± 1120 nM and 46900 ± 1820 nM, respectively.

As for `O=c1[nH]c2c(c(=O)[nH]1)C(c1cccs1)c1[nH]c(=S)[nH]c(=S)c1O2` (centres unmarked) [Compound S5, 10-(thiophen-2-yl)-2,4-dithioxo-1,2,3,4,6,10-hexahydro-7H-pyrano[2,3-d:5,6-d']dipyrimidine-7,9(8H)-dione], the results for the IC50 in experiment [1] (setting [4]), in experiment [2] and in experiment [3] were 11.1 ± 0.76 nM, 4950 ± 70 nM and 7410 ± 180 nM, respectively.

`Cc1nc(O)c2c(n1)Oc1[nH]c(=O)[nH]c(=O)c1C2c1cccs1` (centres unmarked) [Compound S10, 6-hydroxy-8-methyl-5-(thiophen-2-yl)-1,5-dihydro-2H-pyrano[2,3-d:6,5-d']dipyrimidine-2,4(3H)-dione]: the IC50 is 16.2 ± 0.88 nM in experiment [1] (setting [4]), 4480 ± 430 nM in experiment [2] and 12100 ± 640 nM in experiment [3].

As for `CN[C@@H]1C[C@H]2O[C@@](C)([C@@H]1OC)n1c3ccccc3c3c4c(c5c6ccccc6n2c5c31)C(=O)NC4` [Staurosporine, reference compound], in experiment [3], the IC50 was 6940 ± 210 nM.

In the case of `NC1=CC(c2ccc([N+](=O)[O-])cc2)=NC2Oc3[nH]c(=O)[nH]c(=O)c3C(c3cccs3)C12` (centres unmarked) [Compound S8, 6-amino-8-(4-nitrophenyl)-5-(thiophen-2-yl)-1,5,5a,9a-tetrahydro-2H-pyrido[3′,2':5,6]pyrano[2,3-d]pyrimidine-2,4(3H)-dione], the IC50 in experiment [1] (setting [4]) was 15.8 ± 0.86 nM; in experiment [2] it was 660 ± 50 nM; in experiment [3], 2760 ± 60 nM.

As to `CONC1=C(C#N)Oc2[nH]c(=O)[nH]c(=O)c2C1c1cccs1` (centres unmarked) [Compound S6, 6-(methoxyamino)-2,4-dioxo-5-(thiophen-2-yl)-2,3,4,5-tetrahydro-1H-pyrano[2,3-d]pyrimidine-7-carbonitrile], the values for the IC50 in experiment [1] (setting [4]), in experiment [2] and in experiment [3] were 115 ± 7.22 nM, 3120 ± 110 nM and 2850 ± 30 nM, respectively.

As to `Nc1nn(-c2cc([N+](=O)[O-])ccc2[N+](=O)[O-])c2c1Oc1[nH]c(=O)[nH]c(=O)c1C2c1cccs1` (centres unmarked) [Compound S3, 3-amino-1-(2,5-dinitrophenyl)-9-(thiophen-2-yl)-5,9-dihydropyrazolo[3′,4':5,6]pyrano[2,3-d]pyrimidine-6,8(1H,7H)-dione], the IC50 amounted to 71.4 ± 4.12 nM in experiment [1], 3170 ± 1040 nM in experiment [2] and 2800 ± 70 nM in experiment [3].

With `N#CC1=C(N)Oc2[nH]c(=O)[nH]c(=O)c2C1c1cccs1` (centres unmarked) [Compound S1, 7-amino-2,4-dioxo-5-(thiophen-2-yl)-2,3,4,5-tetrahydro-1H-pyrano[2,3-d]pyrimidine-6-carbonitrile], the IC50 in experiment [1] (setting [4]) was 49.1 ± 2.32 nM; in experiment [2] it was 12680 ± 120 nM; in experiment [3], 24100 ± 1140 nM.

For the compound `Nc1ncnc2c1Oc1[nH]c(=O)[nH]c(=O)c1C2c1cccs1` (centres unmarked) [Compound S4, 4-amino-10-(thiophen-2-yl)-6,10-dihydro-7H-pyrano[2,3-d:5,6-d']dipyrimidine-7,9(8H)-dione], the IC50 in experiment [1] (setting [4]) is 14.9 ± 1.03 nM; in experiment [1] (read-out: IC50 against PARP-1 (converted)) it was 15.1 nM; in experiment [2], 870 ± 70 nM; in experiment [3] it was 6380 ± 110 nM.
